Test results published in article PMC6375636, “Monotherapy with a low-dose lipopeptide HIV fusion inhibitor maintains long-term viral suppression in rhesus macaques” (PLoS Pathogens, 2019).
Peptide text beside a SMILES is read from it. * marks the point of attachment. Docosanoyl = CCCCCCCCCCCCCCCCCCCCCC(=O)*; Arachidoyl = CCCCCCCCCCCCCCCCCCCC(=O)*; Stearoyl = CCCCCCCCCCCCCCCCCC(=O)*; X1 = CCCCCCCCCCCCCCCCCCCCCCCC(=O)*; Lauroyl = CCCCCCCCCCCC(=O)*; Octanoyl = CCCCCCCC(=O)*

What was measured:
[1] = tested on: HIV-1NL4-3(D36G) pseudovirus; format: cell-based; settings: Fig 1; NL4-3(D36G) pseudovirus; mean ± SD of three assays in triplicate; read-out: Anti-HIV activity (IC50, pM) NL4-3 entry
Procedure: The inhibitory activities of inhibitors against HIV-1 pseudoviruses and replication-competent isolates were measured as described previously. Briefly, HIV-1 pseudoviruses were generated via the cotransfection of HEK293T cells with an Env-expressing plasmid and a backbone plasmid that encodes Env-defective, luciferase-expressing HIV-1 genome (pSG3Δenv). Viral stocks of replication-competent HIV-1 isolates were generated by transfecting viral molecular clones into HEK293T cells. […] Inhibitors were prepared in 3-fold dilutions, mixed with 100 TCID50 of a virus, and then incubated for 1 h at room temperature. […] Luciferase activity was measured as described above.

HIV-1HXB2 Env = target: T1, HIV-1HXB2 Env (Human immunodeficiency virus type 1 group M subtype B, UniProt P04578); test: HIV-1HXB2 Env-mediated cell-cell fusion (HL2/3 effector, TZM-bl target, luciferase reporter); format: cell-based
T1 construct: HL2/3 cells, which stably express high levels of Env, Gag, Tat, Rev, and Nef proteins of the integrated HIV-1 molecular clone HXB2/3gpt; host or cells: HL2/3 cells (effector), cocultured with TZM-bl target cells
Procedure: The inhibitory activities of inhibitors on HIV-1HXB2 Env-mediated cell-cell fusion were determined by a reporter gene assay based on the activation of an HIV LTR-driven luciferase cassette in TZM-bl cells (target) by HIV-1 tat from HL2/3 cells (effector). Briefly, 1 x 10^4/well of TZM-bl cells were plated in 96-well plates and incubated at 37°C overnight. Then, 3 x 10^4/well of HL2/3 cells were cocultured with target cells for 6 h at 37°C in the presence or absence of an inhibitor at graded concentrations. Luciferase activity was measured using luciferase assay reagents and a Luminescence Counter (Promega, Madison, Wisconsin, USA).

HIV-1JRCSF = format: cell-based; settings: Fig 1; replication-competent virus; mean ± SD of three assays in triplicate; read-out: Anti-HIV activity (IC50, pM) JRCSF infection
Procedure: The inhibitory activities of inhibitors against HIV-1 pseudoviruses and replication-competent isolates were measured as described previously. Briefly, HIV-1 pseudoviruses were generated via the cotransfection of HEK293T cells with an Env-expressing plasmid and a backbone plasmid that encodes Env-defective, luciferase-expressing HIV-1 genome (pSG3Δenv). Viral stocks of replication-competent HIV-1 isolates were generated by transfecting viral molecular clones into HEK293T cells. Culture supernatants were harvested at 48 h posttransfection, and 50% tissue culture infectious doses (TCID50) in TZM-bl cells were determined. Inhibitors were prepared in 3-fold dilutions, mixed with 100 TCID50 of a virus, and then incubated for 1 h at room temperature. The mixture was added to TZM-bl cells (10^4/well), and the cells were incubated for additional 48 h at 37°C. Luciferase activity was measured as described above.

[2] = lipopeptide alone, 10 μM in PBS, representative of 2 assays; for Helix content (%): [θ]222 / -33,000
[3] = target: T2, gp41 NHR-derived target mimic peptide N39 (Human immunodeficiency virus type 1 group M subtype B, UniProt P04578); test: CD spectroscopy of lipopeptides in complex with target mimic peptide N39; format: binding, HIV-1; parameters: [θ]222: unit not given here; settings: complex with N39, each peptide 10 μM in PBS; representative of 2 assays
T2 construct: the gp41 NHR-derived target mimic peptide N39
Description: Spectra were corrected by subtracting a solvent blank.

T1 sequence (P04578 512-856): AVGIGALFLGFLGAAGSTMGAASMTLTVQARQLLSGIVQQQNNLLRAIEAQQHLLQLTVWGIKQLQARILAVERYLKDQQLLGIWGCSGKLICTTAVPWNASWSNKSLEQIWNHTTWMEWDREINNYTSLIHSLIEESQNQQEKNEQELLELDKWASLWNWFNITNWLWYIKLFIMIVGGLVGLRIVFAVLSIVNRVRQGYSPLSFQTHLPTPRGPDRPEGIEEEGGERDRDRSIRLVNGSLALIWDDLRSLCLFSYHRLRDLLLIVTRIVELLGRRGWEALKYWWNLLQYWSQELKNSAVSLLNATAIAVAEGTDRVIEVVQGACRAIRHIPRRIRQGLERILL
T2 sequence (P04578 528-566): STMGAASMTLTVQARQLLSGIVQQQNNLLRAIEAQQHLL

CCCCCCCCCCCCCCCCCCCCCCCC(=O)NCCCC[C@H](NC(=O)[C@H](CCC(=O)O)NC(=O)[C@H](CC(C)C)NC(=O)[C@H](CCCCN)NC(=O)[C@H](CCCCN)NC(=O)[C@H](CC(C)C)NC(=O)[C@H](CCC(=O)O)NC(=O)[C@H](CCC(=O)O)NC(=O)[C@H](CCC(=O)O)NC(=O)[C@H](CC(N)=O)NC(=O)[C@H](CCCCN)NC(=O)[C@H](CCCCN)NC(=O)[C@H](CCC(N)=O)NC(=O)[C@H](CCC(N)=O)NC(=O)[C@H](CCC(=O)O)NC(=O)[C@H](CCC(=O)O)NC(=O)[C@H](C)NC(=O)[C@H](CCCCN)NC(=O)[C@H](CCCCN)NC(=O)[C@H](CC(C)C)NC(=O)[C@H](CC(C)C)NC(=O)[C@H](CCC(=O)O)NC(=O)[C@H](CCC(=O)O)NC(=O)[C@@H](NC(=O)[C@H](CCCCN)NC(=O)[C@H](CCC(N)=O)NC(=O)[C@H](CCC(=O)O)NC(=O)[C@H](Cc1c[nH]c2ccccc12)NC(C)=O)[C@@H](C)CC)C(N)=O [LP-77] (Ac-WEQKIEELLKKAEEQQKKNEEELKKLEK(X1)-NH2)
IC50 [1]: 7.98 ± 0.97 pM
IC50 (HIV-1HXB2 Env): 0.161 ± 0.00664 nM
IC50 (HIV-1JRCSF): 12 ± 1.34 pM

CCCCCCCCCCCCCCCCCCCCCC(=O)NCCCC[C@H](NC(=O)[C@H](CCC(=O)O)NC(=O)[C@H](CC(C)C)NC(=O)[C@H](CCCCN)NC(=O)[C@H](CCCCN)NC(=O)[C@H](CC(C)C)NC(=O)[C@H](CCC(=O)O)NC(=O)[C@H](CCC(=O)O)NC(=O)[C@H](CCC(=O)O)NC(=O)[C@H](CC(N)=O)NC(=O)[C@H](CCCCN)NC(=O)[C@H](CCCCN)NC(=O)[C@H](CCC(N)=O)NC(=O)[C@H](CCC(N)=O)NC(=O)[C@H](CCC(=O)O)NC(=O)[C@H](CCC(=O)O)NC(=O)[C@H](C)NC(=O)[C@H](CCCCN)NC(=O)[C@H](CCCCN)NC(=O)[C@H](CC(C)C)NC(=O)[C@H](CC(C)C)NC(=O)[C@H](CCC(=O)O)NC(=O)[C@H](CCC(=O)O)NC(=O)[C@@H](NC(=O)[C@H](CCCCN)NC(=O)[C@H](CCC(N)=O)NC(=O)[C@H](CCC(=O)O)NC(=O)[C@H](Cc1c[nH]c2ccccc12)NC(C)=O)[C@@H](C)CC)C(N)=O [LP-78] (Ac-WEQKIEELLKKAEEQQKKNEEELKKLEK(Docosanoyl)-NH2)
IC50 [1]: 3.73 ± 0.45 pM
IC50 (HIV-1HXB2 Env): 0.0544 ± 0.00709 nM
IC50 (HIV-1JRCSF): 7.16 ± 2.01 pM

CCCCCCCCCCCCCCCCCCCC(=O)NCCCC[C@H](NC(=O)[C@H](CCC(=O)O)NC(=O)[C@H](CC(C)C)NC(=O)[C@H](CCCCN)NC(=O)[C@H](CCCCN)NC(=O)[C@H](CC(C)C)NC(=O)[C@H](CCC(=O)O)NC(=O)[C@H](CCC(=O)O)NC(=O)[C@H](CCC(=O)O)NC(=O)[C@H](CC(N)=O)NC(=O)[C@H](CCCCN)NC(=O)[C@H](CCCCN)NC(=O)[C@H](CCC(N)=O)NC(=O)[C@H](CCC(N)=O)NC(=O)[C@H](CCC(=O)O)NC(=O)[C@H](CCC(=O)O)NC(=O)[C@H](C)NC(=O)[C@H](CCCCN)NC(=O)[C@H](CCCCN)NC(=O)[C@H](CC(C)C)NC(=O)[C@H](CC(C)C)NC(=O)[C@H](CCC(=O)O)NC(=O)[C@H](CCC(=O)O)NC(=O)[C@@H](NC(=O)[C@H](CCCCN)NC(=O)[C@H](CCC(N)=O)NC(=O)[C@H](CCC(=O)O)NC(=O)[C@H](Cc1c[nH]c2ccccc12)NC(C)=O)[C@@H](C)CC)C(N)=O [LP-79] (Ac-WEQKIEELLKKAEEQQKKNEEELKKLEK(Arachidoyl)-NH2)
Helix content (%) [2]: 48%
Tm (°C) ([2]; ellipticity at 222 nm, 20-98°C, 2°C/min): 56 °C
IC50 [1]: 4.39 ± 0.67 pM
Helix content (%) [3]: 55%
[θ]222 [3]: -18030
IC50 (HIV-1HXB2 Env): 0.0387 ± 0.00447 nM
IC50 (HIV-1JRCSF): 5.7 ± 0.86 pM

CCCCCCCCCCCC(=O)NCCCC[C@H](NC(=O)[C@H](CCC(=O)O)NC(=O)[C@H](CC(C)C)NC(=O)[C@H](CCCCN)NC(=O)[C@H](CCCCN)NC(=O)[C@H](CC(C)C)NC(=O)[C@H](CCC(=O)O)NC(=O)[C@H](CCC(=O)O)NC(=O)[C@H](CCC(=O)O)NC(=O)[C@H](CC(N)=O)NC(=O)[C@H](CCCCN)NC(=O)[C@H](CCCCN)NC(=O)[C@H](CCC(N)=O)NC(=O)[C@H](CCC(N)=O)NC(=O)[C@H](CCC(=O)O)NC(=O)[C@H](CCC(=O)O)NC(=O)[C@H](C)NC(=O)[C@H](CCCCN)NC(=O)[C@H](CCCCN)NC(=O)[C@H](CC(C)C)NC(=O)[C@H](CC(C)C)NC(=O)[C@H](CCC(=O)O)NC(=O)[C@H](CCC(=O)O)NC(=O)[C@@H](NC(=O)[C@H](CCCCN)NC(=O)[C@H](CCC(N)=O)NC(=O)[C@H](CCC(=O)O)NC(=O)[C@H](Cc1c[nH]c2ccccc12)NC(C)=O)[C@@H](C)CC)C(N)=O [LP-81] (Ac-WEQKIEELLKKAEEQQKKNEEELKKLEK(Lauroyl)-NH2)
Helix content (%) [2]: 37%
IC50 [1]: 111 ± 68.1 pM
Helix content (%) [3]: 49%
[θ]222 [3]: -16313
IC50 (HIV-1HXB2 Env): 0.353 ± 0.0763 nM
IC50 (HIV-1JRCSF): 183 ± 45.4 pM

CCCCCCCC(=O)NCCCC[C@H](NC(=O)[C@H](CCC(=O)O)NC(=O)[C@H](CC(C)C)NC(=O)[C@H](CCCCN)NC(=O)[C@H](CCCCN)NC(=O)[C@H](CC(C)C)NC(=O)[C@H](CCC(=O)O)NC(=O)[C@H](CCC(=O)O)NC(=O)[C@H](CCC(=O)O)NC(=O)[C@H](CC(N)=O)NC(=O)[C@H](CCCCN)NC(=O)[C@H](CCCCN)NC(=O)[C@H](CCC(N)=O)NC(=O)[C@H](CCC(N)=O)NC(=O)[C@H](CCC(=O)O)NC(=O)[C@H](CCC(=O)O)NC(=O)[C@H](C)NC(=O)[C@H](CCCCN)NC(=O)[C@H](CCCCN)NC(=O)[C@H](CC(C)C)NC(=O)[C@H](CC(C)C)NC(=O)[C@H](CCC(=O)O)NC(=O)[C@H](CCC(=O)O)NC(=O)[C@@H](NC(=O)[C@H](CCCCN)NC(=O)[C@H](CCC(N)=O)NC(=O)[C@H](CCC(=O)O)NC(=O)[C@H](Cc1c[nH]c2ccccc12)NC(C)=O)[C@@H](C)CC)C(N)=O [LP-82] (Ac-WEQKIEELLKKAEEQQKKNEEELKKLEK(Octanoyl)-NH2)
Helix content (%) [2]: 22%
IC50 [1]: 1010 ± 344 pM
Helix content (%) [3]: 39%
[θ]222 [3]: -12910
IC50 (HIV-1HXB2 Env): 3.21 ± 1.43 nM
IC50 (HIV-1JRCSF): 3710 ± 1080 pM

CCCCCCCCCCCCCCCCCC(=O)NCCCC[C@H](NC(=O)[C@H](CCC(=O)O)NC(=O)[C@H](CC(C)C)NC(=O)[C@H](CCCCN)NC(=O)[C@H](CCCCN)NC(=O)[C@H](CC(C)C)NC(=O)[C@H](CCC(=O)O)NC(=O)[C@H](CCC(=O)O)NC(=O)[C@H](CCC(=O)O)NC(=O)[C@H](CC(N)=O)NC(=O)[C@H](CCCCN)NC(=O)[C@H](CCCCN)NC(=O)[C@H](CCC(N)=O)NC(=O)[C@H](CCC(N)=O)NC(=O)[C@H](CCC(=O)O)NC(=O)[C@H](CCC(=O)O)NC(=O)[C@H](C)NC(=O)[C@H](CCCCN)NC(=O)[C@H](CCCCN)NC(=O)[C@H](CC(C)C)NC(=O)[C@H](CC(C)C)NC(=O)[C@H](CCC(=O)O)NC(=O)[C@H](CCC(=O)O)NC(=O)[C@@H](NC(=O)[C@H](CCCCN)NC(=O)[C@H](CCC(N)=O)NC(=O)[C@H](CCC(=O)O)NC(C)=O)[C@@H](C)CC)C(N)=O [LP-88] (Ac-EQKIEELLKKAEEQQKKNEEELKKLEK(Stearoyl)-NH2)
Helix content (%) [2]: 34%
IC50 [1]: 4.26 ± 1.3 pM
Helix content (%) [3]: 55%
[θ]222 [3]: -18242
IC50 (HIV-1HXB2 Env): 0.0144 ± 0.00137 nM
IC50 (HIV-1JRCSF): 4.29 ± 0.58 pM

CCCCCCCCCCCCCCCCCC(=O)NCCCC[C@H](NC(=O)[C@H](CCC(=O)O)NC(=O)[C@H](CC(C)C)NC(=O)[C@H](CCCCN)NC(=O)[C@H](CCCCN)NC(=O)[C@H](CC(C)C)NC(=O)[C@H](CCC(=O)O)NC(=O)[C@H](CCC(=O)O)NC(=O)[C@H](CCC(=O)O)NC(=O)[C@H](CC(N)=O)NC(=O)[C@H](CCCCN)NC(=O)[C@H](CCCCN)NC(=O)[C@H](CCC(N)=O)NC(=O)[C@H](CCC(N)=O)NC(=O)[C@H](CCC(=O)O)NC(=O)[C@H](CCC(=O)O)NC(=O)[C@H](C)NC(=O)[C@H](CCCCN)NC(=O)[C@H](CCCCN)NC(=O)[C@H](CC(C)C)NC(=O)[C@H](CC(C)C)NC(=O)[C@H](CCC(=O)O)NC(=O)[C@H](CCC(=O)O)NC(=O)[C@@H](NC(=O)[C@H](CCCCN)NC(C)=O)[C@@H](C)CC)C(N)=O [LP-89] (Ac-KIEELLKKAEEQQKKNEEELKKLEK(Stearoyl)-NH2)
Helix content (%) [2]: 43%
IC50 [1]: 10.8 ± 3.14 pM
Helix content (%) [3]: 51%
[θ]222 [3]: -16781
IC50 (HIV-1HXB2 Env): 0.0733 ± 0.021 nM
IC50 (HIV-1JRCSF): 12.4 ± 1.22 pM

Ac-WEQKIEELLKKAEEQQKKNEEELKKLEK-NH2 [Lipopeptide P-52]
IC50 [1]: 2620 ± 235 pM
IC50 (HIV-1HXB2 Env): 1.34 ± 0.119 nM
IC50 (HIV-1JRCSF): 2170 ± 146 pM
